Values belong to the compound of their own block, whether it stands above or below them.
Assays:
[1] = Loading of dye/agents in NPs; format: physicochemical
Procedure: Polymer Synthesis and Nanoparticle (NP) formulation. […] Chloroform was utilized as the mobile phase with a flow rate of 1 mL/min and both the columns and RI detector were maintained at 40° C. MW characteristics were determined relative to a calibration curve generated from narrow polydispersity polystyrene standards (Aldrich Chemical). […] Polymers or the mixture (100 mg) was dissolved in 2 mL chloroform containing DIR (1 mg), coumarin 6 (10 mg), RAPA (10 mg) or iron oxide (1 mg). Phosphate-buffered saline (PBS, 100 μL) or the PBS containing INS (10 μg) was added dropwise to the chloroform polymer solution while vortexing and homogenized using an IKA T25 Digital Ultra-Turrax (IKA). This dispersant phase was then added dropwise to a continuous phase of 5% PVA and homogenized. The mixture was then added dropwise to 200 mL of 0.2% PVA and left stirring for 2 h to evaporate the solvent. NPs were collected by centrifugation at 12,000 rpm for 20 min at 4° C. and then washed 3 times with deionized water. The particles were lyophilized and stored at −20° C. The hydrodynamic diameter and surface charge of NPs were measured by a Malvern Zetasizer. A dispersion of NPs was filtrated through a 0.45 μm Millipore filter into cuvettes prior to the measurements. […] The morphology of the NPs was observed by Hitachi S-4800 High Resolution scanning electron microscopy (SEM, Norcross). A dispersion of NPs in ethanol (2 μL) was placed on the wafer substrate and dried at room temperature. The sample was mounted on the aluminum sample holder and then gold sputtered. […] NPs were dispersed in the media (citrate buffer solution, pH 2.0) at 37° C. in the presence of pepsin (10 mg/mL). At each time point, NPs were centrifuged, and supernatant was collected to measure the amount of DIR released from the particles using a plate reader (λex 750 nm, λem 790 nm, SpectraMax M5, Molecular Devices). Insulin release was quantified by the BCA assay.

[2] = Biodistribution and clearance of dye-loaded NPs after oral gavage; format: in vivo, mice; conditions: pancreas
Procedure: B6, NOD, or Nude mice were fasted for 4 h and treated with DIR- or coumarin 6-encapsulating NPs by oral gavage (50, 100, or 500 mg/kg, 250 μL). Free DIR or coumarin 6 (solubilized with 1% Tween 20) served as controls. […] Fluorescence data was fit to the one component exponential decay model: Y=Yf+(Yo−e^−kt).
Biodistribution in animals was conducted using fluorescent dye loaded pBA NPs. Animals were first fasted for 4 h prior to the experiment then orally gavaged with the NP formulations in saline followed by resumption of normal food and water. At 4 h post gavage, animals were euthanized, and organs were harvested to be fluorescently imaged. Quantitative fluorescence was conducted with a multispectral imaging platform (Bruker multispectral MS FX PRO imaging system).

[3] = cited from earlier work
[4] = test system: mouse pancreatic β cell line (MIN6); assay: Insulin production from pancreatic β cells (MIN6) by TGR5 activation; format: cell-based; conditions: 40 μg/mL, 25 mM glucose, compared with PLGA particles
Procedure: Concentration of insulin was measured using an Ultrasensitive Insulin ELISA kit (ALPCO). […] The pAkt production from CHO cells incubated with fresh or denatured insulin was compared to calculate percent bioactivity.
Concentration of insulin was measured using an Ultrasensitive Insulin ELISA kit (ALPCO).

rat microglia = conditions: cited from earlier work
[5] = test system: fibroblasts from patients with either sporadic or familial Alzheimer's disease; conditions: cited from earlier work

- Loading of agent [1]: 6.7 μg per mg of particles
- ΔY (Final-Initial) [2]: 1.42 % Initial Dose/cm^3
- k (clearance rate) ([2]; one phase decay fit): ~0.01 h⁻¹
Compound: CCCCCCCCCCCCCCCCCCN1C(=CC=CC=CC=CC2=[N+](CCCCCCCCCCCCCCCCCC)c3ccccc3C2(C)C)C(C)(C)c2ccccc21.[I-] [DIR, 1,1′-dioctadecyl-3,3,3′,3′-tetramethylindotricarbocyanine iodide]

- Loading of agent [1]: 84.3 μg per mg of particles
Compound: CCN(CC)c1ccc2cc(-c3nc4ccccc4s3)c(=O)oc2c1 [coumarin 6]
- Log P [3]: 1.8

Compound: CC(CCC(=O)O)C1CC[C@H]2[C@@H]3[C@@H](O)C[C@@H]4C[C@H](O)CC[C@]4(C)[C@H]3CC[C@]12C (stereo partly shown) [UDCA, urso-deoxycholic acid]
- insulin secretion from pancreatic β cells [4]: able to induce insulin secretion
- effect on IL-1β, nitric oxide, TNF-α (rat microglia): reduce IL-1β and nitric oxide, and downregulate TNF-α
- effect on mitochondrial function and Drp1 [5]: improve mitochondrial function and redistributes Drp1

Compound: insulin
- Loading of agent [1]: 0.02 μg per mg of particles
- loading of INS in pUDCA NPs [1]: approximately 20 ng/mg of NP
